From patent publication US20080275136A1, “Use of Glycerol for Improving Cardiac Function” (priority 2005, published 2008)
Like-named read-outs stand apart in the source and are kept apart here.

Experiments:
perfused rat heart [1] = assay: 14CO2 production from [14C]-glycerol in perfused rat heart (mitochondrial energy production); settings: energy demand raised from 350 to 450 beats/min; whatever the circulating glycerol concentration (0.33 or 3.33 mM)
Method: (§1) The investigations were carried out on a perfused rat heart model (LOPASCHUK and BARR., 1997, aforementioned, SENTEX et al, 2001, aforementioned, FOLCH et al., J Biol Chem, 226, 497-509, 1957). Male Wistar rats (280-330 g) were anaesthetised with sodium pentobarbital (60 mg per kg, i.p.) and heparin was intravenously injected (500 IU/kg). After 1 min, the hearts were excised and placed in a cold (4° C.) perfusion buffer awaiting contractions ceased. The heart was then immediately cannulated through the aorta and perfused according to the Langendorff method at a constant perfusion pressure of 80 cm of water (8 kPa). […]
(§2) Before use, all solutions were filtered through a 0.8 μm filter (Millipore, Saint Quentin en Yvelines, France) to remove any particulate contaminants. […] The intra-ventricular pressure and the heart rate were recorded together with ECG. Coronary flow was measured by sequentially collecting the effluent. […]
The cardiac capacity to use glycerol as a metabolic substrate in energy production, according to glycerol availability was evaluated using ^14C-radiolabelled glycerol.
The direct measurement of mitochondrial energy production was made by quantitatively collecting ^14CO2 produced from the perfused hearts. […] The hyamine […] was collected every 10 minutes and the radioactivity evaluated.

perfused rat heart [2] = assay: Glycerol uptake in perfused rat heart (total radioactivity of the homogenate)
Method: as §1, with “kPa). The perfusion fluid consisted of a modified Krebs-Henseleit bicarbonate buffer (mM concentrations: NaCl 118, NaHCO3 25, MgSO4 1.2, KH2PO4 1.2, KCl 4.7, glucose 5.5 and CaCl2 2.0).” for “kPa).”
as §2
At the end of the perfusion, the heart was washed out from the remaining radiolabelled medium by 10 mL of Krebs-Henseleit solution injected through the canula. […] The radioactivity of the homogenate was evaluated.
The glycerol uptake was evaluated from the total radioactivity of the homogenate.

perfused rat heart [3] = assay: Incorporation of glycerol in glycerolipids (PL and NPL) in perfused rat heart; settings: increase in rate
Method: The experiments were performed using the perfusion conditions described in Example 1. At the end of the perfusion, the heart was washed out from the remaining radiolabelled medium by 10 mL of Krebs-Henseleit solution injected through the canula. The hearts were homogenized in 30 mL chloroform/methanol (2/1, v/v) according to FOLCH (1957, aforementioned). The radioactivity of the homogenate was evaluated. A 0.73% NaCl solution was added to the homogenate to cause phase separation. The radioactivity was determined in samples of the aqueous and organic fractions, and the phospholipids (PL) were separated from non-phosphorous lipids (NPL) on silica cartridges (Supelco, Sigma) and the radioactivity of each class was evaluated. The fate of intracellular glycerol was evaluated in these rat hearts by analysing the radioactivity incorporated into phospholipids (PL) and non-phosphorous lipids (NPL), which in the heart represent mainly the triacylglycerol pool.

perfused rat heart [4] = assay: Simultaneous oxidation of [3H]-palmitate and [14C]-glycerol in perfused rat heart; settings: extracellular glycerol concentration increased; palmitate 0.4 mM
Method: The influence of cardiac energy demand and circulating glycerol concentration on fatty acid metabolism was evaluated in the heart by following the intracellular palmitate fate with [^3H]-palmitate. The experiments were performed using the perfusion conditions described in Example 1, except that a perfusion solution supplemented with palmitate (0.4 mM) was used. To prepare palmitate-enriched solution, 43.5 g of albumin (fraction bovine, Sigma) was dissolved in 350 mL Krebs-Henselheit buffer. Palmitate was then slowly added to this albumin solution and mixed. The albumin-palmitate mixture was dialysed against Krebs-Henselheit solution at +4° C. (three time 12 h dialysis in 10 basal solution volume). For the final preparation of the palmitate-enriched fluid, 93.5 mL of concentrated solution were incorporated in 2 L of Krebs-Henselheit Radioactive solution was prepared in the same conditions with addition of [^3H]-palmitate (1 μCi/mL). The perfusion solution also contained [^14C]-glycerol to follow glycerol oxidation in the same heart. The oxidations of palmitate and glycerol were evaluated simultaneously using as tracers [^3H]-palmitate and [^14C]-GLYCEROL, respectively. At the end of the perfusion, the oxidized substrates were determined by measuring the radioactivity rejected by the heart in the perfusion medium as [^3H]2O and [^14C]O2, respectively.

[5] = tested on: isolated neonatal rat cardiomyocytes; settings: cited from earlier work
type 2 diabetic patients = settings: cited from earlier work
heart = settings: cited from earlier work
[6] = as a function of the extracellular glycerol concentration

## OCC(O)CO [glycerol]
Perfused rat heart [1]
  mitochondrial production of 14CO2 from glycerol: significantly increased
Perfused rat heart [2]; high glycerol concentration (3.33 mM), increased energetic demand 350 to 450 beats/min
  glycerol uptake: significant increase
Perfused rat heart [2]; low glycerol concentration (0.33 mM), increase in rate 350 to 450 beats/min
  glycerol uptake: not significantly modified
Perfused rat heart [3]; high glycerol concentration (3.33 mM)
  synthesis of glycerolipids: involved in the synthesis of both membrane phospholipids and storage triacylglycerols
Perfused rat heart [3]; low glycerol concentration (0.33 mM)
  synthesis of glycerolipids: does not influence
Perfused rat heart [4]
  FA β-oxidation ([3H]2O from palmitate): reduced
  glycerol oxidation ([14C]O2): increased
[5]; [6]
  PL concentration: increased progressively
  triacylglycerol concentration: only increased at higher glycerol concentrations
[5]; extracellular glycerol concentration from 80 μM to 660 μM
  glycerol uptake: increases

## CCOC(=O)[C@@]1(CCCCCCOc2ccc(Cl)cc2)CO1 [Etomoxir]
Type 2 diabetic patients
  insulin sensitivity: improve insulin sensitivity
heart; chronic treatment
  cardiac hypertrophy: induced cardiac hypertrophy
heart; normal and diabetic heart
  glucose oxidation: increase glucose oxidation

## COc1ccc(CN2CCNCC2)c(OC)c1OC [Trimetazidine, reference compound]
[5]; Trimetazidine added
  glycerol uptake: increased
  phospholipid synthesis: increased their synthesis only at high glycerol concentrations
  triacylglycerol synthesis: no significant effect
heart; associated with increased phospholipid synthesis
  cellular glycerol uptake: significant increase
heart
  β-oxidation: reduces β-oxidation
heart; in vitro and in vivo
  phospholipid synthesis: increasing the phospholipid synthesis
